According to US20130303509A1, “NAMPT INHIBITORS” (AbbVie Inc., priority 2012, published 2013):

Test system: PC3 cells
Experiment: NAMPT Cell Proliferation Assay
Type: cell-based
Conditions: Homo sapiens, PC-3, 120 h, 5 days incubation, cell viability by Cell Titer Glo
In short: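 Seeded at 500 cells/well in RPMI with 10% heat-inactivated FBS and left to attach overnight at 37° C, 5% CO2. Compounds were added as 10-fold dilutions […] for 5 days, then viability was read by CellTiter-Glo. IC50s came from sigmoidal fits of percent inhibition.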

| IC50 [nM] | SMILES |
| --- | --- |
| 1.61 | CC(C)(C)Cc1nnc(-c2ccc(NC(=O)C3CN(c4cccnn4)C3)cc2)o1 [Example 803, N-{4-[5-(2,2-dimethylpropyl)-1,3,4-oxadiazol-2-yl]phenyl}-1-(pyridazin-3-yl)azetidine-3-carboxamide] |
| 7.06 | O=C(Nc1ccc(OC2CCN(C(=O)c3ccc(Cl)cc3)CC2)cc1)C1CN(c2cccnn2)C1 [Example 245, N-(4-{[1-(4-chlorobenzoyl)piperidin-4-yl]oxy}phenyl)-1-(pyridazin-3-yl)azetidine-3-carboxamide] |
| 2830 | CC(C)Cn1cc(-c2ccc(C(=O)N[C@H]3CCN(c4cnnc(Cl)c4Cl)C3)s2)cn1 [Example 620, N-[(3S)-1-(5,6-dichloropyridazin-4-yl)pyrrolidin-3-yl]-5-[1-(2-methylpropyl)-1H-pyrazol-4-yl]thiophene-2-carboxamide] |
| 79.2 | O=C(Nc1ccc(S(=O)(=O)C2CCN(C(=O)c3cccc(Cl)c3)CC2)cc1)C1CN(c2cccnn2)C1 [Example 564, N-(4-{[1-(3-chlorobenzoyl)piperidin-4-yl]sulfonyl}phenyl)-1-(pyridazin-3-yl)azetidine-3-carboxamide] |
| 0.98 | CC1(C(=O)N2CCC(c3ccc(NC(=O)C4CN(c5cccnn5)C4)cc3)CC2)CCCCC1 [Example 437, N-(4-{1-[(1-methylcyclohexyl)carbonyl]piperidin-4-yl}phenyl)-1-(pyridazin-3-yl)azetidine-3-carboxamide] |
| 683 | O=C(Nc1ccc(OC2CCN(C(=O)Cc3ccc(OC(F)(F)F)cc3)CC2)cc1)C1CN(c2ccnnc2)C1 [Example 275, 1-(pyridazin-4-yl)-N-{4-[(1-{[4-(trifluoromethoxy)phenyl]acetyl}piperidin-4-yl)oxy]phenyl}azetidine-3-carboxamide] |

Further lines, the compound ahead of its results:

| SMILES | IC50 [nM] |
| --- | --- |
| O=C(Nc1ccc(O[C@@H]2CCN(C(=O)C3CC3)C2)cc1)C1CN(c2cccnn2)C1 [Example 502, N-(4-{[(3R)-1-(cyclopropylcarbonyl)pyrrolidin-3-yl]oxy}phenyl)-1-(pyridazin-3-yl)azetidine-3-carboxamide] | 4.74 |
| CC(C)C(C)C(=O)N1CCC(c2ccc(NC(=O)C3CN(c4cccnn4)C3)cc2)CC1 (centres unmarked) [Example 326, N-{4-[1-(2,3-dimethylbutanoyl)piperidin-4-yl]phenyl}-1-(pyridazin-3-yl)azetidine-3-carboxamide] | 5.77 |
| CC(C)CN1CCC(Oc2ccc(NC(=O)C3CN(c4cccnc4)C3)cc2)CC1 [Example 76, N-(4-{[1-(2-methylpropyl)piperidin-4-yl]oxy}phenyl)-1-(pyridin-3-yl)azetidine-3-carboxamide] | 19.1 |
| CCOCC(=O)N1CCC(c2ccc(NC(=O)C3CN(c4cccnc4)C3)cc2)CC1 [Example 131, N-{4-[1-(ethoxyacetyl)piperidin-4-yl]phenyl}-1-(pyridin-3-yl)azetidine-3-carboxamide] | 0.3 |
| O=C(Nc1ccc(OC2CCN(C(=O)Cc3ccc(C(F)(F)F)cc3)CC2)cc1)C1CN(c2cccnn2)C1 [Example 220, 1-(pyridazin-3-yl)-N-{4-[(1-{[4-(trifluoromethyl)phenyl]acetyl}piperidin-4-yl)oxy]phenyl}azetidine-3-carboxamide] | 13.2 |
| O=C(Nc1ccc(C2CN(C(=O)c3cccc(F)c3)C2)cc1)[C@H]1CCN(c2cccnn2)C1 [Example 786, (3S)-N-{4-[1-(3-fluorobenzoyl)azetidin-3-yl]phenyl}-1-(pyridazin-3-yl)pyrrolidine-3-carboxamide] | 12 |
| CC(C)C(=O)N1CCC(S(=O)(=O)c2ccc(NC(=O)C3CN(c4ccnnc4)C3)cc2)CC1 [Example 614, N-(4-{[1-(2-methylpropanoyl)piperidin-4-yl]sulfonyl}phenyl)-1-(pyridazin-4-yl)azetidine-3-carboxamide] | 7660 |
| O=C(Nc1ccc(O[C@@H]2CCN(C(=O)C3CCCO3)C2)cc1)C1CN(c2ccnnc2)C1 (stereo partly drawn) [Example 457, 1-(pyridazin-4-yl)-N-(4-{[(3R)-1-(tetrahydrofuran-2-ylcarbonyl)pyrrolidin-3-yl]oxy}phenyl)azetidine-3-carboxamide] | 142 |
